# Source: patent US4521419A, “Condensed cycloaliphatic derivatives of substituted pyrido[1,2-a]pyrimidines and methods of treating allergic conditions, peptic ulcers and inhibiting gastric acid secretion with them” (Farmitalia Carlo Erba S.p.A., priority 1982, dated 1985)
# Experiments:
# [1] = test system: gastric secretion in rats; assay: inhibition of gastric secretion in rats (H. Shay et al.); format: in vivo; settings: rat, intraduodenal administration; read-out: antisecretory activity, approximate ED25
# Procedure: (§1) One of the preferred compounds of the invention having antisecretory activity is, for example, the compound 3-(2-methyl-benzylidene)-1,2,3,10-tetrahydro-10-oxo-10H-cyclopenta[d]pyrido[1,2-a]pyrimidine-7-carboxylic acid, which has an approximate ED25 value of 10 mg/kg in the above test in the rat, after intraduodenal administration. In view of their high therapeutic index the compounds of the invention can be safely used in medicine. For example, the approximate acute toxicity (LD50) of the compounds 3-benzylidene-1,2,3,10-tetrahydro-10-oxo-cyclopenta[d]pyrido[1,2-a]pyrimidine-7-carboxylic acid, 3-(2-methyl-benzylidene)-1,2,3,10-tetrahydro-10-oxo-10H-cyclopenta[d]pyrido[1,2-a]pyrimidine-7-carboxylic acid and 4-benzylidene-1,2,3,4-tetrahydro-11-oxo-11H-pyrido[2,1-b]quinazoline-8-carboxylic acid, in the mouse, determined with single administration of increasing doses and measured on the seventh day after the day of treatment, is per os higher than 800 mg/kg. Analogous toxicity data have been found for the other compounds of the invention.
# [2] = acute toxicity (LD50) in the mouse; settings: in vivo, po, per os, single administration of increasing doses, measured on the seventh day after treatment, read-out: approximate acute toxicity (LD50)
# Procedure: as §1
# restraint ulcers in rats = assay: inhibition of restraint ulcers in rats (Bonfils et al.); format: in vivo; settings: po, 1 h; rat, per os one hour before immobilization; approximate value; read-out: Anti-ulcerogenic activity ED50
# Procedure: (§2) For example, in the above test in the rat the compound FCE 21273 gives about a 30% inhibition of RPAR reaction when administered orally at a dosage of 100 mg/kg. The compounds of the present invention, furthermore, are active on the gastroenterical system, in particular they are endowed with anti-ulcerogenic and anti-secretory activity and are therefore useful in therapy, for example, in the prevention and treatment of peptic, e.g., duodenal, gastric and esophageal, ulcers and to inhibit gastric acid secretion. The anti-ulcerogenic activity of the compounds of the invention is shown, e.g., by the fact that they are active in the test of inhibition of restraint ulcers in rats, according to the method of Bonfils et al. (Therapie, 1960, 15, 1096; Jap. J.Pharmac. 1968, 18, 9).
# The tested compound was administered per os (p.o.) one hour before the immobilization.
# Six Sprague-Dawley male rats (100-120 g) fasted 24 hours were used for the experiment: a square flexible small-mesh wire netting was used for the immobilization and 4 hours after the immobilization the rats were sacrificed, their stomachs were removed and the lesions counted under a dissecting microscope.
# rat peritoneal cells = assay: A 23187 induced SRS production from rat peritoneal cells; format: cell-based; settings: in vitro, FCE 21273 at 1 mcg/ml
# Description: (1) test of A 23187 induced SRS production from rat peritoneal cells, according to M. K. Bach and J. R. Brashler (J. Immunol., 113, 2040, 1974);
# chopped guinea-pig lung = assay: antigen induced SRS production from chopped guinea-pig lung; format: cell-based; settings: Cavia porcellus, in vitro, FCE 21273 at 10 mcg/ml
# Description: (2) test of antigen induced SRS production from chopped guinea-pig lung, according to W. E. Brocklehurst (J. Physiol., 151, 416, 1960); and in vivo
# [3] = test system: Reversed Passive Arthus Reaction (RPAR); assay: Reversed Passive Arthus Reaction (RPAR) in the rat; format: in vivo; settings: administered orally at 100 mg/kg
# Description: Furthermore the compounds of this invention are effective in vivo, for example, in inhibiting the Reversed Passive Arthus Reaction (RPAR) which is a model of immune-complex induced inflammatory reaction initiated by the interaction of antigen and antibody resulting in the formation of precipitating immune-complex, followed by complement fixation and accumulation of PMN in the focal site (D. K. Gemmell, J. Cottney and A. J. Lewis, Agents and Actions 9/1 page 107, 1979).
# as §2
SMILES,ED25 [1],LD50 at 168 h [2],ED50 (restraint ulcers in rats),inhibition at 1 µg/mL (rat peritoneal cells),inhibition at 10 µg/mL (chopped guinea-pig lung),inhibition of RPAR reaction [3]
"Cc1ccccc1C=C1CCc2c1nc1ccc(C(=O)O)cn1c2=O [3-(2-methyl-benzylidene)-1,2,3,10-tetrahydro-10-oxo-cyclopenta[d]pyrido[1,2-a]pyrimidine-7-carboxylic acid]",~10 mg/kg,> 800 mg/kg,–,–,–,–
"O=C(O)c1ccc2nc3c(c(=O)n2c1)CCC3=Cc1ccccc1 [3-benzylidene-1,2,3,10-tetrahydro-10-oxo-cyclopenta[d]pyrido[1,2-a]pyrimidine-7-carboxylic acid]",–,> 800 mg/kg,12 mg/kg,–,–,–
"O=C(O)c1ccc2nc3c(c(=O)n2c1)CCCC3=Cc1ccccc1 [FCE 21273, 4-benzylidene-1,2,3,4-tetrahydro-11-oxo-11H-pyrido[2,1-b]quinazoline-8-carboxylic acid]",–,> 800 mg/kg,–,50%,47%,~30%
